According to patent publication US20080119408A1, “PTH FORMULATIONS FOR INTRANASAL DELIVERY” (NASTECH PHARMACEUTICAL COMPANY INC., priority 2006, published 2008):
Read-outs that look alike come from different tables or passages of the source. Ends that are not written are not given here.

Columns and labels:
[1] = 13-week intranasal toxicity and toxicokinetics in rats; assay type: in vivo, rat; conditions: Crl:CD(SD), rat, in vivo, sc, 25 μg/kg/day, female rats, administered by injection (subcutaneous)
Experimental: (§1) Toxicity and toxicokinetics of PTH1-34 formulations were evaluated in male and female Crl:CD(SD) rats. PTH1-34 (synthetic form) was administered once daily via intranasal instillation to rats for at least 13 weeks. For comparison, one group received commercially available recombinant PTH1-34 via subcutaneous injection. Assessment of toxicity was based on mortality, clinical observations, ophthalmic examinations, body weights, food consumption, clinical and anatomic pathology, and toxicokinetic evaluations. Two synthetic PTH1-34 formulations were used in the study, PTH-072-1 and PTH-074 at low and high doses (formulations are shown in Table 22).
(§2) Doses in rats were determined for body weight, body surface area, and nasal surface area. Representative concentrations of PTH1-34 for clinical studies were considered to be 1.5 mg/mL and 3.0 mg/mL (and a dose volume of 100 μL). For the lower concentration, a 70 kg human would receive a dose of 2.1 μg/kg based on body weight. At the higher dose a human would receive a dose of 4.3 μg/kg based on body weight.

Crl:CD(SD) rats = experiment: as above; assay type: in vivo, rat
Experimental: as §1, §2

[2] = 13-week intranasal toxicity and toxicokinetics in dogs; assay type: in vivo; conditions: both sexes, beagle, dog, in vivo, sc, 6 μg/kg/day; dogs, subcutaneous injection; read-out: Tmax for PTH1-34
Experimental: (§3) Toxicity and toxiokinetics of PTH1-34 was studied after administration of PTH1-34 once daily by intranasal instillation to dogs for at least 13 weeks. One additional group received recombinant PTH1-34 by subcutaneous injection for comparison.
(§4) Male and female beagles were assigned among six study groups. Animals assigned to groups 1 through 5 received an intranasal installation of a negative control (0.9% Sodium Chloride for Injection, USP), 40 or 80 μg/kg of body weight/day (μg/kg/day) PTH1-34 (synthetic form) in the PTH-072 formulation (Example 10, Table 22), or 80 or 200 μg/kg/day PTH1-34 (synthetic form) in the PTH-074-1 formulation (Example 10, Table 22).
(§5) Results were collected for mortality, clinical signs, gross nasal passage observations, ophthalmic findings, electrocardiogram measurements, blood pressure and heart rate differences, body weights, food consumption, clinical and anatomic pathology, and toxicokinetic evaluations. All animals in the study survived to scheduled necropsy. […] The nasal cavity was sectioned such that meaningful regions of the cavity were represented, and the soft (e.g., epithelial lining) or hard tissues (e.g., bone and cartilage based structures) of the nasal cavity were examined.

beagles = experiment: as above; assay type: in vivo
Experimental: as §3, §4, §5

MatTek in vitro system = experiment: Chlorobutanol permeation study of API formulations (PTH, Calcitonin), MatTek in vitro system, ELISA; assay type: cell-based; conditions: CB 0-5 mg/mL
Experimental: Chlorobutanol (CB) was added to API formulations (PTH and Calcitonin) to test permeation in the MatTek in vitro system. CB was tested at varying concentrations (0, 1.25, 2.5, 3.75 and 5 mg/mL) in 10 mM citrate buffer, pH 4.0 and adjusted for a final target osmolality of 220 mOsm with sorbitol. Calcitonin and PTH were added at 2 mg/mL in each of the respective control or test formulations (n=6 insert per formulation). 1 mL of each formulation was placed into silanized 3 cc vials. A 0.1 mL volume of a 20× stock of one of the API compounds was added to 0.9 mL of 1.1× concentrated diluent form of each of the CB formulations to make the unique formulations.

[3] = test system: EpiAirway Tissue Model (normal, human-derived tracheal/bronchial epithelial cells); experiment: Transepithelial electrical resistance (TER), MatTek cell model (Examples 1-2); assay type: cell-based; conditions: 1-h incubation, apical application
Experimental: The effect of various permeation enhancers on PTH formulations was measured in a MatTek cell model (MatTek, Corp. Ashland, Mass.). Three permeation enhancers (EDTA, ethanol, and polysorbate 80 (Tween 80)) were evaluated individually and in combination with one another. Sorbitol was used as a tonicifiers to adjust the osmolality of formulations to 220 mOsm/kg whenever applicable. The formulation pH was adjusted to ˜4.0. The permeation enhancer combination of 45 mg/ml Me-β-CD, 1 mg/ml DDPC, and 1 mg/ml EDTA at pH 4.5 served as the positive control. The formulation containing sorbitol only was used as the negative control. Each formulation was evaluated in the presence and absence of preservative. […]
Each tissue insert was placed in an individual well containing 1 ml media. […] Transepithelial electrical resistance (TER) was measured before and after the 1-h incubation. Following the incubation, the cell inserts were analyzed for cell viability via the mitochondrial dehydrogenase (MDH) assay.
TER measurements were accomplished using the Endohm-12 Tissue Resistance Measurement Chamber connected to the EVOM Epithelial Voltammeter (World Precision Instruments, Sarasota, Fla.) with the electrode leads. […] The background resistance was measured with 1.5 ml Media in the Endohm tissue chamber and 300 μl Media in the blank insert. […] Resistance was expressed as (resistance measured−blank)×0.6 cm^2. […]

[4] = test system: EpiAirway Tissue Model (normal, human-derived tracheal/bronchial epithelial cells); experiment: Cell viability, MTT assay (Example 3); assay type: cell-based; conditions: after 1-h incubation
Experimental: (§6) Each tissue insert was placed in an individual well containing 1 ml media. On the apical surface of the inserts, 100 μl of test formulation was applied, and the samples were shaken for 1 h at 37° C. The underlying culture media samples were taken at 20, 40, and 60 minutes and stored at 4° C. for up to 48 hours for lactate dehydrogenase (LDH, cytotoxicity) and sample penetration (PTH HPLC evaluations). The 60-min samples were used for the lactate dehydrogenase (LDH, cytotoxicity) assay. Transepithelial electrical resistance (TER) was measured before and after the 1-h incubation. Following the incubation, the cell inserts were analyzed for cell viability via the mitochondrial dehydrogenase (MDH) assay.
Cell viability was assessed using the MTT assay (MTT-100, MatTek kit). Thawed and diluted MTT concentrate was pipetted (300 μl) into a 24-well plate. Tissue inserts were gently dried, placed into the plate wells, and incubated at 37° C. for 3 hours. After incubation, each insert was removed from the plate, blotted gently, and placed into a 24-well extraction plate. The cell culture inserts were immersed in 2.0 ml of the extractant solution per well (to completely cover the sample). The extraction plate was covered and sealed to reduce evaporation of extractant. […] The optical density of the samples was measured at 550 nm on a plate reader.

[5] = test system: EpiAirway Tissue Model (normal, human-derived tracheal/bronchial epithelial cells); experiment: Cytotoxicity, LDH assay (Example 3); assay type: cell-based; conditions: 60-min samples
Experimental: as §6
The amount of cell death was assayed by measuring the loss of lactate dehydrogenase (LDH) from the cells using a CytoTox 96 Cytoxicity Assay Kit (Promega Corp., Madison, Wis.). LDH analysis of the apical media was evaluated. The appropriate amount of media was added to the apical surface in order to total 250 μL, taking into consideration the initial sample loading volume. The inserts was shaken for 5 minutes. 150 μL of the apical media was removed to eppendorf tubes and centrifuged at 10000 rpm for 3 minutes. […] Following incubation, 50 μl of stop solution was added to each well and the plates read on an optical density plate reader at 490 nm.

[6] = anesthetized rats, cited from earlier work

For CC[C@H](C)[C@H](NC(=O)[C@H](CCC(=O)O)NC(=O)[C@H](CO)NC(=O)[C@@H](NC(=O)[C@@H](N)CO)C(C)C)C(=O)N[C@@H](CCC(N)=O)C(=O)N[C@@H](CC(C)C)C(=O)N[C@@H](CCSC)C(=O)N[C@@H](Cc1cnc[nH]1)C(=O)N[C@@H](CC(N)=O)C(=O)N[C@@H](CC(C)C)C(=O)NCC(=O)N[C@@H](CCCCN)C(=O)N[C@@H](Cc1cnc[nH]1)C(=O)N[C@@H](CC(C)C)C(=O)N[C@@H](CC(N)=O)C(=O)N[C@@H](CO)C(=O)N[C@@H](CCSC)C(=O)N[C@@H](CCC(=O)O)C(=O)N[C@@H](CCCN=C(N)N)C(=O)N[C@H](C(=O)N[C@@H](CCC(=O)O)C(=O)N[C@@H](Cc1c[nH]c2ccccc12)C(=O)N[C@@H](CC(C)C)C(=O)N[C@@H](CCCN=C(N)N)C(=O)N[C@@H](CCCCN)C(=O)N[C@@H](CCCCN)C(=O)N[C@@H](CC(C)C)C(=O)N[C@@H](CCC(N)=O)C(=O)N[C@@H](CC(=O)O)C(=O)N[C@H](C(=O)N[C@@H](Cc1cnc[nH]1)C(=O)N[C@@H](CC(N)=O)C(=O)N[C@@H](Cc1ccccc1)C(=O)O)C(C)C)C(C)C [PTH1-34, teriparatide], the Cmax [1] was 7.72 to 12.2 ng/mL, the Tmax [1] was 5 min and the half-life ([1]; read-out: t1/2 for PTH1-34) was 15 to 23 min. For the same compound, the “trabecular bone in femur and sternum” value (Crl:CD(SD) rats; female rats, 25 μg/kg/day SQ, 200 μg/kg/day PTH-072-1, 500 μg/kg/day PTH-074-1 intranasally) was “thickened trabecular bone”, the “changes in nasal turbinate tissues” value (Crl:CD(SD) rats; rats, 13 weeks intranasal) was “No changes considered to be attributable to the intranasal administration of PTH1-34 were observed” and the “clinical signs, ophthalmic observations, body weight, food consumption” value (Crl:CD(SD) rats; rats, 13 weeks, regardless of route, dose level or formulation) was “No PTH1-34 related clinical signs, ophthalmic observations, body weight changes, or food consumption changes were observed”. For the same compound, the Tmax [2] was 13 to 26 min, the “histologic changes in nasal tissues” value (beagles; dog, in vivo) was “no histologic changes in nasal tissues” and the “trabecular bone in femur and sternum” value (beagles; dogs dosed subcutaneously or intranasally at the high dose) was “minimally thickened trabecular bone”. The “AUClast greater in the dog than in humans at representative doses” value (beagles; dogs vs humans) was ≥ 10 fold, the “Cmax greater in the dog than in humans at representative doses” value (beagles; dogs vs humans) was “at least 7 fold” and the “clinical signs, ophthalmic findings, ECG, blood pressure, heart rate, body weights, food consumption” value (beagles; dogs, 13 weeks) was “No PTH1-34 related clinical signs, ophthalmic findings, electrocardiogram differences, blood pressure and heart rate differences, body weights, or food consumption changes were noted”. For the same compound, the “effect of addition of CB on permeation of the API” value (MatTek in vitro system) was “enhanced permeation”.

In the case of “Calcitonin (CGNLSTCMLGTYTQDFNKFHTFPQTAIGVGAP; ends and bridges not checked; cysteine pairing not given here; UniProt P01258 85-116, looked up) [peptide API tested for CB permeation enhancement]”, the “effect of addition of CB on permeation of the API” value (MatTek in vitro system) is reported as “failed to enhance permeation”.

With Triton X the TER reduction [3] was “significant TER reduction”, the “cell viability (MTT)” value [4] was “significant reduction of cell viability” and the “cytotoxicity (LDH)” value [5] was “significant cytotoxicity”.

In the case of “human growth hormone: protein whose nasal bioavailability in rats was reported raised by N-acetyl-L-cysteine”, the “nasal bioavailability of human growth hormone” value ([6]; with N-acetyl-L-cysteine) is given as 12.2% and the “nasal bioavailability of human growth hormone” value ([6]; without N-acetyl-L-cysteine) is given as 7.5%.
